The source of these data is US10729741B2, “Methods of treating burns with i.v. cP12 in a window from 2 to 6 hours after injury” (NeoMatrix Therapeutics Inc., priority 2017, dated 2020).

Where two headings read alike, the source gives them in different places. Residues, ends and D or L forms follow the SMILES beside them.

The subject of one data set is porcine burns. Briefly: porcine vertical injury progression burn model, wound closure by H&E histology. The format is in vivo, pig. The note with it: for percent wounds closed (100% re-epithelialization) at 14 d post-burn: compiled data. As for the experimental part:
For a pathobiology proof-of-principle study we used a validated porcine vertical injury progression burn model (Singer A J, Hirth D, McClain S A, Crawford L, Lin F, and Clark R A. Validation of a vertical progression porcine burn model. J Burn Care Res. 2011; 32(6):638-46). In short, while under general anaesthesia, twenty burns were created on the dorsal skin of four outbred female Yorkshire pigs (˜25 kg) using a 2.5×2.5×7.5 cm, 150 gram aluminum bar equilibrated in an 80° C. water bath and applied for 20 s. The application of the 80° C. aluminum bar caused burn injury a little beyond mid-dermis but often progressed to full-thickness within 3-7 days. All burns were treated with petrolatum, and protected with Tegaderm. In some pigs, a fibronectin (FN)-derived peptide (P12) (SEQ ID NO:1) was infused over 30 min at 1, 2, and 4 h post-burn using doses of 0.003, 0.01 or 0.03 mg/kg. The infused P12 peptide (SEQ ID NO:1) was cyclized (cP12) (SEQ ID NO:2) to prevent exopeptidase digestion from amino- and carboxy-peptidases, which are common in the blood and skin.
Tissue specimens taken at 14 days after a 30 min infusion of cP12 (SEQ ID NO:2) doses at 0.003, 0.01, 0.03 or 0.1 mg/kg, where infusions began at 1, 4, 8, 12 and 24 h post-burn, have been fixed, stained with hematoxylin and eosin (H&E), and determined whether the surface of the wound was 100% re-epithelialized, i.e. wound closure obtained. The percent wounds totally re-epithelialized at each cP12 (SEQ ID NO:2) dose and each post-burn time of onset of a 30 min infusion are recorded in Table 1. The number of pigs used for each dose and time is denoted in Table 1 by parentheses. Each pig while under general anesthesia had 20 burn wounds administered on the back by a 2.5×2.5 aluminum bar heated to 80° C. and applied to the skin for 20 sec.
The effect of cP12 (SEQ ID NO:2) doses at 0.003, 0.01, 0.03 or 0.1 mg/kg at 4 h post-burn 30 min-infusion on percent wounds closed at 14d post-burn the 5 experiments performed under these conditions are shown in Table 2. The dates indicate the onset on each experiment, i.e. the date the pigs receive burns.

Data set [1] can be described thus: anaphylactoid response with 30 min infusion in pig models. In kind it is in vivo. As for the experimental part:
Depending on the animal type, cP12 (SEQ ID NO:2) (or linear P12. SEQ ID NO:1) can induce an anaphylactoid response at 2.5 to 10 mg/kg given as an iv bolus or even a rapid infusion. This reaction is less likely with a slower infusion.

The subject of another data set is mesenchymal cell. Conditions: in solution; intrinsically and synergistically with growth factors, especially PDGF-BB; cited from earlier work.
For data set [2], the system named is adult human dermal fibroblasts (AHDF). The note with it: oxidative and cytokine stress and/or nutrient withdrawal, in the presence of PDGF-BB; cited from earlier work.
Data set [3] concerns burn injury. Conditions: rat burn model; cited from earlier work.
For data set [4], the system named is burn injury. Conditions: cited from earlier work.

`CC[C@H](C)[C@@H]1NC(=O)[C@H](Cc2ccc(O)cc2)NC(=O)[C@H](CCCCN)NC(=O)[C@H](CO)NC(=O)[C@H]([C@@H](C)CC)NC(=O)[C@H](Cc2c[nH]cn2)NC(=O)[C@H](CO)NC(=O)[C@@H]2CCCN2C(=O)[C@H](CCCCN)NC(=O)[C@@H]2CCCN2C(=O)[C@H](CCCNC(=N)N)NC(=O)[C@H](Cc2c[nH]c3ccccc23)NC(=O)[C@H](CCCNC(=N)N)NC(=O)[C@H](CC(C)C)NC1=O` [cP12] (HELM PEPTIDE1{H.I.S.K.Y.I.L.R.W.R.P.K.P.S}$PEPTIDE1,PEPTIDE1,1:R1-14:R2$$$V2.0): the “percent wounds closed (100% re-epithelialization) at 14 d post-burn” value with porcine burns (0.003 mg/kg, 30 min i.v. infusion begun 1 h post-burn) was 17 (5) percent; with porcine burns (0.003 mg/kg, 30 min i.v. infusion begun 4 h post-burn), 37 (3) percent; with porcine burns (0.01 mg/kg, 30 min i.v. infusion begun 1 h post-burn), 28 (8) percent; in the data set with porcine burns (0.01 mg/kg, 30 min i.v. infusion begun 4 h post-burn) it was 65 (5) percent; in the data set with porcine burns (0.01 mg/kg, 30 min i.v. infusion begun 8 h post-burn) it was 34 (5) percent; in the data set with porcine burns (0.01 mg/kg, 30 min i.v. infusion begun 12 h post-burn), 40 (3) percent. Besides, the “percent wounds closed (100% re-epithelialization) at 14 d post-burn” value is 40 (3) percent with porcine burns (0.01 mg/kg, 30 min i.v. infusion begun 24 h post-burn); 8 (8) percent with porcine burns (0.03 mg/kg, 30 min i.v. infusion begun 1 h post-burn); 25 (3) percent in the data set on porcine burns (0.03 mg/kg, 30 min i.v. infusion begun 4 h post-burn); 25 (5) percent with porcine burns (0.1 mg/kg, 30 min i.v. infusion begun 1 h post-burn); 50 (2) percent with porcine burns (0.1 mg/kg, 30 min i.v. infusion begun 4 h post-burn); 28 (5) percent with porcine burns (0.1 mg/kg, 30 min i.v. infusion begun 8 h post-burn). Further, the “percent wounds closed (100% re-epithelialization) at 14 d post-burn” value was 25 (3) percent in the data set with porcine burns (0.1 mg/kg, 30 min i.v. infusion begun 12 h post-burn) and 17 (3) percent in the data set with porcine burns (0.1 mg/kg, 30 min i.v. infusion begun 24 h post-burn). In the data set with porcine burns (administered 2 to 6 hours after wounding versus one hour or 8 to 12 hours after wounding), the “effectiveness of i.v. treatment by time of administration after wounding” value was “more effective”. The anaphylactoid response result in data set [1] is reported as “avoid any anaphylacoid response”.

Turning to “P12: 14-residue fibronectin fragment PSHISKYILRWRPK, cryptic within fibronectin's first type III repeat (FNIII1) (a 14-residue peptide that is cryptic within the immunoglobulin sandwich type of beta-pleated sheet of fibronectin′s first type III repeat)”, the “mesenchymal cell growth, proliferation and migration” value in the data set with mesenchymal cell was “promotes mesenchymal cell growth, proliferation and migration”. For the same molecule, the “protection from cell death” value in data set [2] is listed as “protects”. For the same molecule, the burn injury progression result in the data set on burn injury [3] and in the data set on burn injury [4] (porcine burn model) was “limits burn injury progression” throughout. Further, the scarring entry in the data set on burn injury [4] (vertical burn injury progression pig model) is “mitigates scarring”.
